From ChEMBL document CHEMBL1697781, “Assessment of the health effects of chemicals in humans: II. Construction of an adverse effects database for QSAR modeling” (Curr Drug Discov Technol, 2004)

Columns and labels:
Settings in all cases: human; call rule not given here
Hepatotoxicity [1] = assay: FDA HLAED, liver enzyme composite activity
Hepatotoxicity [2] = assay: FDA HLAED, serum glutamic oxaloacetic transaminase (SGOT) increase
Hepatotoxicity [3] = assay: FDA HLAED, alkaline phosphatase increase
Hepatotoxicity [4] = assay: FDA HLAED, serum glutamic pyruvic transaminase (SGPT) increase

SMILES | Composite Activity - Active (Hepatotoxicity [1]) | Composite Activity - Marginal (Hepatotoxicity [1]) | Composite Activity - Score (Hepatotoxicity [1]) | SGOT Increase - Activity Score (Hepatotoxicity [2]) | SGOT Increase - Index Value (Hepatotoxicity [2]) | SGOT Increase - Number of Reports (Hepatotoxicity [2]) | Alkaline Phosphatase Increase - Activity Score (Hepatotoxicity [3]) | Alkaline Phosphatase Increase - Index Value (Hepatotoxicity [3]) | Alkaline Phosphatase Increase - Number of Reports (Hepatotoxicity [3]) | SGPT Increase - Activity Score (Hepatotoxicity [4]) | SGPT Increase - Index Value (Hepatotoxicity [4]) | SGPT Increase - Number of Reports (Hepatotoxicity [4])
CCCCCCCCCCCCCCCCCC(=O)O.CC[C@H]1OC(=O)[C@H](C)[C@@H](O[C@H]2C[C@@](C)(OC)[C@@H](O)[C@H](C)O2)[C@H](C)[C@@H](O[C@@H]2O[C@H](C)C[C@H](N(C)C)[C@H]2OC(C)=O)[C@](C)(O)C[C@@H](C)C(=O)[C@H](C)[C@@H](O)[C@]1(C)O [ERYTHROMYCIN ACISTRATE] | 3 | 0 | Active | Active | 7.9 | >= 4 | Active | 7.3 | >= 4 | Active | 8.5 | >= 4
CCOC(=O)CCC(=O)O[C@H]1[C@H](O[C@@H]2[C@@H](C)[C@H](O[C@H]3C[C@@](C)(OC)[C@@H](O)[C@H](C)O3)[C@@H](C)C(=O)O[C@H](CC)[C@@](C)(O)[C@H](O)[C@@H](C)C(=O)[C@H](C)C[C@@]2(C)O)O[C@H](C)C[C@@H]1N(C)C [ERYTHROMYCIN ETHYLSUCCINATE] | 3 | 0 | Active | Active | 7.9 | >= 4 | Active | 7.3 | >= 4 | Active | 8.5 | >= 4
CCC(=O)O[C@H]1[C@H](O[C@@H]2[C@@H](C)[C@H](O[C@H]3C[C@@](C)(OC)[C@@H](O)[C@H](C)O3)[C@@H](C)C(=O)O[C@H](CC)[C@@](C)(O)[C@H](O)[C@@H](C)C(=O)[C@H](C)C[C@@]2(C)O)O[C@H](C)C[C@@H]1N(C)C [ERYTHROMYCIN PROPIONATE] | 3 | 0 | Active | Active | 7.9 | >= 4 | Active | 7.3 | >= 4 | Active | 8.5 | >= 4
CC[C@H]1OC(=O)[C@H](C)[C@@H](O[C@H]2C[C@@](C)(OC)[C@@H](O)[C@H](C)O2)[C@H](C)[C@@H](O[C@@H]2O[C@H](C)C[C@H](N(C)C)[C@H]2O)[C@](C)(O)C[C@@H](C)C(=O)[C@H](C)[C@@H](O)[C@]1(C)O [ERYTHROMYCIN] | 3 | 0 | Active | Active | 7.9 | >= 4 | Active | 7.3 | >= 4 | Active | 8.5 | >= 4
CC(C)Cc1ccc(C(C)C(=O)O)cc1 (centres undefined) [IBUPROFEN] | 0 | 3 |  | Marginally Active | No Shipping Units | >= 4 | Marginally Active | No Shipping Units | >= 4 | Marginally Active | No Shipping Units | >= 4
